Data published in patent publication US11697648B2, “Fused pyrimidine pyridinone compounds as JAK inhibitors” (THERAVANCE BIOPHARMA R&D IP, LLC, priority 2019, dated 2023).

Columns and labels:
JAK1 = JAK1 (Homo sapiens (Human), UniProt P23458); assay: Biochemical JAK1 kinase assay (LanthaScreen)
Method in brief: (§1)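 GST-JAK + GFP-STAT1 peptide, HEPES pH 7.5/MgCl2/EGTA/Brij-35 buffer; cpd preincubation 1 h RT; ATP start, 1 h RT; stop with 10 mM EDTA + 2 nM Tb-anti-pSTAT1; TR-FRET 520/495. 4-parameter IC50 → pKi (Cheng-Prusoff).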

JAK2 = JAK2 (Homo sapiens (Human), UniProt O60674); assay: Biochemical JAK2 kinase assay (LanthaScreen)
Method in brief: as §1

JAK3 = JAK3 (Homo sapiens (Human), UniProt P52333); assay: Biochemical JAK3 kinase assay (LanthaScreen); settings: for JAK3 (pKi)-JAK1 (pKi): selectivity JAK3 over JAK1, difference of pKi
Method in brief: as §1

Tyk2 = Tyk2 (Homo sapiens (Human), UniProt P29597); assay: Biochemical Tyk2 kinase assay (LanthaScreen)
Method in brief: as §1

[1] = test system: IL-2 stimulated STAT5 phosphorylation in Tall-1 human T cell line (JAK3); assay: Cellular JAK3 potency assay: inhibition of IL-2 stimulated pSTAT5 in Tall-1 T cells; format: cell-based; settings: IL-2 stimulated pSTAT5, Tall-1 T cells
Method in brief: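 AlphaLISA SureFire Ultra measures STAT5 Tyr694/699 phosphorylation in lysed Tall-1 human T cells. Cells were exposed to compound for 1 h at 37 °C before a 30 min IL-2 challenge (300 ng/ml final). Values are pIC50 means with standard deviation from signal-versus-concentration curves.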

JAK1, sequence (P23458 whole entry): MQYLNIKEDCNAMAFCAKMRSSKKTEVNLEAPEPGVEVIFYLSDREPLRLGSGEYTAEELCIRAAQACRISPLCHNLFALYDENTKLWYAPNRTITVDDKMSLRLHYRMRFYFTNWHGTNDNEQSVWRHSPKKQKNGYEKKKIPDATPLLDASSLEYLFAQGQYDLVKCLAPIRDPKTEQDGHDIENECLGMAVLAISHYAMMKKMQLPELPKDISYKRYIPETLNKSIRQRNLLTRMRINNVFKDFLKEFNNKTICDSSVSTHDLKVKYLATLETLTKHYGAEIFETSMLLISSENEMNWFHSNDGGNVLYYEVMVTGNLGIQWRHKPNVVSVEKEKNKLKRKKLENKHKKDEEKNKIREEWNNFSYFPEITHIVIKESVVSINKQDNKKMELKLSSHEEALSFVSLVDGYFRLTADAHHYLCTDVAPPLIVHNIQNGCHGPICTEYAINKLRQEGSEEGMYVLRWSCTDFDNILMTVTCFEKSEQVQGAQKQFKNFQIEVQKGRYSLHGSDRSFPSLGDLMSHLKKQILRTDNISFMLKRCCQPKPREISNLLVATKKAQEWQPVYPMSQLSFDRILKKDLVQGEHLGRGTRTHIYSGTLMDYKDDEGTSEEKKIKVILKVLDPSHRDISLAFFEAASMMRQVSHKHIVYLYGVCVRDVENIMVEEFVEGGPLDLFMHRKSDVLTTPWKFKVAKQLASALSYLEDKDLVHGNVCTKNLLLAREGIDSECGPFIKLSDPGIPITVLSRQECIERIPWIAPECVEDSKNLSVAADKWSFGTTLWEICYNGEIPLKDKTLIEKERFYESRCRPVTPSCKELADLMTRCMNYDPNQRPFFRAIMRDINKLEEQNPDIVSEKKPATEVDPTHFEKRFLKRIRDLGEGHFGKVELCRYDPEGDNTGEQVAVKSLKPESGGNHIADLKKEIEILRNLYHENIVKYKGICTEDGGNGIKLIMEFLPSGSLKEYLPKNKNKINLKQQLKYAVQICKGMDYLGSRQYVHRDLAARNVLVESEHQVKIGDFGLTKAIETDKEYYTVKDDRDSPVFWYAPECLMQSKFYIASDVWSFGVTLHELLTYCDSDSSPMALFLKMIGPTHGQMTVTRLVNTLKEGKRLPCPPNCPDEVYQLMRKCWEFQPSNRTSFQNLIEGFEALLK
Tyk2, sequence (P29597 whole entry): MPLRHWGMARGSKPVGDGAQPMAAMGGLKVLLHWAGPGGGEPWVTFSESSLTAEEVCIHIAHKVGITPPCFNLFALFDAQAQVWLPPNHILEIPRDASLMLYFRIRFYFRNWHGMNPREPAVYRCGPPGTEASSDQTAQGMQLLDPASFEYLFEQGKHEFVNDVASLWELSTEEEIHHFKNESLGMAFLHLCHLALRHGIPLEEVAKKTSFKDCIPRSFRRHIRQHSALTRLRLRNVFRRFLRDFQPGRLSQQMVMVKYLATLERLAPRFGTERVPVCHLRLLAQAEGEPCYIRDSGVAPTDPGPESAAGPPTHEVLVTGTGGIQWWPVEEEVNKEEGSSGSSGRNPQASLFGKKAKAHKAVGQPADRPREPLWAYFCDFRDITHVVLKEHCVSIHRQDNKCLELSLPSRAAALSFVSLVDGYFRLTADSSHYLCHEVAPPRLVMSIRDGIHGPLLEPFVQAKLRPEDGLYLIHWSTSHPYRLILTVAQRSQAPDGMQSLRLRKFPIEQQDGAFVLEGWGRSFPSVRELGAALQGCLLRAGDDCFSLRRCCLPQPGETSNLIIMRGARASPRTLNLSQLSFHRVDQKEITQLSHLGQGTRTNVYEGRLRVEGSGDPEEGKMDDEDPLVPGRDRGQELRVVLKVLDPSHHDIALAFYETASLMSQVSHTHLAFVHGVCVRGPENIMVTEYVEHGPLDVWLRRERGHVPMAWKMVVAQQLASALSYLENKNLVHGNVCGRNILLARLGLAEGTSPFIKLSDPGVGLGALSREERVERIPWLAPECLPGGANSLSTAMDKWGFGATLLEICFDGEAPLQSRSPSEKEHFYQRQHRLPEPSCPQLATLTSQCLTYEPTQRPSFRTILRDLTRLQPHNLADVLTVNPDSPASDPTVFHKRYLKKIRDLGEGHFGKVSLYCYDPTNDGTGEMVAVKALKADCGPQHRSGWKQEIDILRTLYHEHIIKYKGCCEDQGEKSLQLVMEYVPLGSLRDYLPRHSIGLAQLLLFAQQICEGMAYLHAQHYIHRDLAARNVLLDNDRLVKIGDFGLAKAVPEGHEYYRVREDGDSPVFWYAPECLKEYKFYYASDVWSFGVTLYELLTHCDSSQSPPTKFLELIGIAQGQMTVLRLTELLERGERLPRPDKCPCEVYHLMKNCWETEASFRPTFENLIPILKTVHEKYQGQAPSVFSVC
JAK3, sequence (P52333 whole entry): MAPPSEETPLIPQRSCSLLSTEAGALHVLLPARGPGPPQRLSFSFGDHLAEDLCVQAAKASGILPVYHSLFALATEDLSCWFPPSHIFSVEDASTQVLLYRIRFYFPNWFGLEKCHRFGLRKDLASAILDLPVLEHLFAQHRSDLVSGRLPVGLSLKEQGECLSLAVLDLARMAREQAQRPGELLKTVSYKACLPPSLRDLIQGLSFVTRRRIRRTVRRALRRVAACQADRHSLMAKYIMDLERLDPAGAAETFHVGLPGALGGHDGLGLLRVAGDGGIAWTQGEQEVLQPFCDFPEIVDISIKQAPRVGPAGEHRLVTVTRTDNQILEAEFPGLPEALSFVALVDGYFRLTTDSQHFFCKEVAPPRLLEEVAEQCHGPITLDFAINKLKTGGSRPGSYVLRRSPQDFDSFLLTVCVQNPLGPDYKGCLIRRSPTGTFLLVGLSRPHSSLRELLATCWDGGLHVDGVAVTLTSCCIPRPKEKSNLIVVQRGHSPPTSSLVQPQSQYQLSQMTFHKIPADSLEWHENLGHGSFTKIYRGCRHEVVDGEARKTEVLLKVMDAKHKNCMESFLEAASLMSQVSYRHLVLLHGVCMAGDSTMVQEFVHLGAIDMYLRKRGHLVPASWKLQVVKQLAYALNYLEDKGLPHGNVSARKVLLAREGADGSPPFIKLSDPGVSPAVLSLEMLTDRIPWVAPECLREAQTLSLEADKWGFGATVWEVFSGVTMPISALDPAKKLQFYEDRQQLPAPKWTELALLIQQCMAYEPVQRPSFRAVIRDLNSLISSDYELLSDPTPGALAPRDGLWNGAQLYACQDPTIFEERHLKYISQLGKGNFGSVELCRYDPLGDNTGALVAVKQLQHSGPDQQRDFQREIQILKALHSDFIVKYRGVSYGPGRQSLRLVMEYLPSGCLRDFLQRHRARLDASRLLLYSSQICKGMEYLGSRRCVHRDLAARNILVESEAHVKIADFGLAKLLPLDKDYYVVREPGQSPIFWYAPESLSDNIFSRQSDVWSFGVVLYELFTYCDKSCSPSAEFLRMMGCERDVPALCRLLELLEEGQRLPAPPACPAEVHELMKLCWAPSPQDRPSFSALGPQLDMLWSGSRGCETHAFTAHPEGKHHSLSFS
JAK2, sequence (O60674 whole entry): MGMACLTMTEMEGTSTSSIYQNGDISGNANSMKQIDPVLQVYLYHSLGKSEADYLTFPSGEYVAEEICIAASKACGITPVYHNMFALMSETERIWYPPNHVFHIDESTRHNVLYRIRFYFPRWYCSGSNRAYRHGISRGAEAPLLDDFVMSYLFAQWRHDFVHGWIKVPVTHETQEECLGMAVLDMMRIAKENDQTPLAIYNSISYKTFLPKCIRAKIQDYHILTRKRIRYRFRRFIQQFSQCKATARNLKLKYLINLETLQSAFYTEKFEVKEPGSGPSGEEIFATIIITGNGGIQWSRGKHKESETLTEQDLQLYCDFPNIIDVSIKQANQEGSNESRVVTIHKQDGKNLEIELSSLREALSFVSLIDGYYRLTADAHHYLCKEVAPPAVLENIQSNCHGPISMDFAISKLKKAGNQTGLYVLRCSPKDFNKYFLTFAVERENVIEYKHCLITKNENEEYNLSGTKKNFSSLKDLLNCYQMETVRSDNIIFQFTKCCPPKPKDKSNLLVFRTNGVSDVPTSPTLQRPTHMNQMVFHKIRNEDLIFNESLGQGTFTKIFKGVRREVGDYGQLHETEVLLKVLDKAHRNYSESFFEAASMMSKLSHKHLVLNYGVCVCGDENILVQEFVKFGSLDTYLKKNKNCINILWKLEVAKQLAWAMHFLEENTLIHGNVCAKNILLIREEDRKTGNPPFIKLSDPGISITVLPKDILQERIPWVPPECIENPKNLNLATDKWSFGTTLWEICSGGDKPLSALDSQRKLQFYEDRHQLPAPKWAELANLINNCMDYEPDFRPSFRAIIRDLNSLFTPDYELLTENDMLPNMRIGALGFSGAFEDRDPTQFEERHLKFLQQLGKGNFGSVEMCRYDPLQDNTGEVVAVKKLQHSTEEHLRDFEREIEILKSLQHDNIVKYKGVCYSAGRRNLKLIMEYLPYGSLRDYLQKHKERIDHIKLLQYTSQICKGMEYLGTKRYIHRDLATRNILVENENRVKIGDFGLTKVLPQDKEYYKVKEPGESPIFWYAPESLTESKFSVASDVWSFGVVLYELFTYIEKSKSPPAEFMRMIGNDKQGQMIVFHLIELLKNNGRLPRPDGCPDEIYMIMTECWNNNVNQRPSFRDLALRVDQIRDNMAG

C=CC(=O)N1CC(CCn2c(=O)ccc3cnc(Nc4ccc(OCCO)cc4)nc32)C1 [Example 223]
JAK 1 (pKi) (JAK1): E (E represents a pKi value of 7 or below (Ki of 100 nM or above))
JAK 2 (pKi) (JAK2): E (E represents a pKi value of 7 or below (Ki of 100 nM or above))
JAK 3 (pKi) (JAK3): A (A represents a pKi value≥10 (Ki≤0.1 nM))
JAK3 (pKi)-JAK1 (pKi) (JAK3): A (A represents a value of 3 or above)
Tyk 2 (pKi) (Tyk2): E (E represents a pKi value of 7 or below (Ki of 100 nM or above))
Tall-1 (pIC50) [1]: B (B represents a pC50 value between 6.7 (included) and 7.5 (IC50 between 200 nM and 32 nM))

C=CC(=O)N1CC(CCn2c(=O)ccc3cnc(Nc4ccc(N(C)CCO)cc4)nc32)C1 [Example 224]
JAK 1 (pKi) (JAK1): E (E represents a pKi value of 7 or below (Ki of 100 nM or above))
JAK 2 (pKi) (JAK2): E (E represents a pKi value of 7 or below (Ki of 100 nM or above))
JAK 3 (pKi) (JAK3): B (B represents pKi value between 9 and 10 (Ki between 1 nM and 0.1 nM))
JAK3 (pKi)-JAK1 (pKi) (JAK3): A (A represents a value of 3 or above)
Tyk 2 (pKi) (Tyk2): E (E represents a pKi value of 7 or below (Ki of 100 nM or above))
Tall-1 (pIC50) [1]: B (B represents a pC50 value between 6.7 (included) and 7.5 (IC50 between 200 nM and 32 nM))

C=CC(=O)N1CC(CCn2c(=O)ccc3cnc(Nc4ccc(N(C)Cc5ccccc5)cc4)nc32)C1 [Example 225]
JAK 1 (pKi) (JAK1): E (E represents a pKi value of 7 or below (Ki of 100 nM or above))
JAK 2 (pKi) (JAK2): E (E represents a pKi value of 7 or below (Ki of 100 nM or above))
JAK 3 (pKi) (JAK3): B (B represents pKi value between 9 and 10 (Ki between 1 nM and 0.1 nM))
JAK3 (pKi)-JAK1 (pKi) (JAK3): A (A represents a value of 3 or above)
Tyk 2 (pKi) (Tyk2): E (E represents a pKi value of 7 or below (Ki of 100 nM or above))
Tall-1 (pIC50) [1]: C (C represents a pIC50 value between 6 and 6.7 (IC50 between 1 μM and 200 nM))

C=CC(=O)N1CC(CCn2c(=O)ccc3cnc(Nc4ccn(C)n4)nc32)C1 [Example 226]
JAK 1 (pKi) (JAK1): E (E represents a pKi value of 7 or below (Ki of 100 nM or above))
JAK 2 (pKi) (JAK2): E (E represents a pKi value of 7 or below (Ki of 100 nM or above))
JAK 3 (pKi) (JAK3): B (B represents pKi value between 9 and 10 (Ki between 1 nM and 0.1 nM))
JAK3 (pKi)-JAK1 (pKi) (JAK3): A (A represents a value of 3 or above)
Tyk 2 (pKi) (Tyk2): E (E represents a pKi value of 7 or below (Ki of 100 nM or above))
Tall-1 (pIC50) [1]: C (C represents a pIC50 value between 6 and 6.7 (IC50 between 1 μM and 200 nM))

C[C@H]1CN(c2ccc(Nc3ncc4ccc(=O)n(CCC5CN(C(=O)/C=C/CN(C)C)C5)c4n3)cc2)CCN1C [Example 227]
JAK 1 (pKi) (JAK1): E (E represents a pKi value of 7 or below (Ki of 100 nM or above))
JAK 2 (pKi) (JAK2): E (E represents a pKi value of 7 or below (Ki of 100 nM or above))
JAK 3 (pKi) (JAK3): B (B represents pKi value between 9 and 10 (Ki between 1 nM and 0.1 nM))
JAK3 (pKi)-JAK1 (pKi) (JAK3): A (A represents a value of 3 or above)
Tyk 2 (pKi) (Tyk2): E (E represents a pKi value of 7 or below (Ki of 100 nM or above))
Tall-1 (pIC50) [1]: C (C represents a pIC50 value between 6 and 6.7 (IC50 between 1 μM and 200 nM))

C[C@@H]1CN(c2ccc(Nc3ncc4ccc(=O)n(CCC5CN(C(=O)/C=C/CN(C)C)C5)c4n3)cc2)CCN1C [Example 228]
JAK 1 (pKi) (JAK1): E (E represents a pKi value of 7 or below (Ki of 100 nM or above))
JAK 2 (pKi) (JAK2): E (E represents a pKi value of 7 or below (Ki of 100 nM or above))
JAK 3 (pKi) (JAK3): B (B represents pKi value between 9 and 10 (Ki between 1 nM and 0.1 nM))
JAK3 (pKi)-JAK1 (pKi) (JAK3): A (A represents a value of 3 or above)
Tyk 2 (pKi) (Tyk2): E (E represents a pKi value of 7 or below (Ki of 100 nM or above))
Tall-1 (pIC50) [1]: C (C represents a pIC50 value between 6 and 6.7 (IC50 between 1 μM and 200 nM))

C=CC(=O)N1CCN(CCn2c(=O)ccc3cnc(Nc4cnn(CCOCC)c4)nc32)[C@@H](C)C1 [Example 229]
JAK 1 (pKi) (JAK1): E (E represents a pKi value of 7 or below (Ki of 100 nM or above))
JAK 2 (pKi) (JAK2): E (E represents a pKi value of 7 or below (Ki of 100 nM or above))
JAK 3 (pKi) (JAK3): B (B represents pKi value between 9 and 10 (Ki between 1 nM and 0.1 nM))
JAK3 (pKi)-JAK1 (pKi) (JAK3): A (A represents a value of 3 or above)
Tyk 2 (pKi) (Tyk2): E (E represents a pKi value of 7 or below (Ki of 100 nM or above))
Tall-1 (pIC50) [1]: B (B represents a pC50 value between 6.7 (included) and 7.5 (IC50 between 200 nM and 32 nM))

C=CC(=O)N1CCN(CCn2c(=O)ccc3cnc(Nc4cnn(CCOC(C)C)c4)nc32)[C@@H](C)C1 [Example 230]
JAK 1 (pKi) (JAK1): E (E represents a pKi value of 7 or below (Ki of 100 nM or above))
JAK 2 (pKi) (JAK2): E (E represents a pKi value of 7 or below (Ki of 100 nM or above))
JAK 3 (pKi) (JAK3): B (B represents pKi value between 9 and 10 (Ki between 1 nM and 0.1 nM))
JAK3 (pKi)-JAK1 (pKi) (JAK3): A (A represents a value of 3 or above)
Tyk 2 (pKi) (Tyk2): E (E represents a pKi value of 7 or below (Ki of 100 nM or above))
Tall-1 (pIC50) [1]: B (B represents a pC50 value between 6.7 (included) and 7.5 (IC50 between 200 nM and 32 nM))

C=CC(=O)N1CCN(CCn2c(=O)ccc3cnc(Nc4cnn(C5CCN(C)CC5)c4)nc32)[C@@H](C)C1 [Example 231]
JAK 1 (pKi) (JAK1): E (E represents a pKi value of 7 or below (Ki of 100 nM or above))
JAK 2 (pKi) (JAK2): E (E represents a pKi value of 7 or below (Ki of 100 nM or above))
JAK 3 (pKi) (JAK3): B (B represents pKi value between 9 and 10 (Ki between 1 nM and 0.1 nM))
JAK3 (pKi)-JAK1 (pKi) (JAK3): A (A represents a value of 3 or above)
Tyk 2 (pKi) (Tyk2): E (E represents a pKi value of 7 or below (Ki of 100 nM or above))
Tall-1 (pIC50) [1]: B (B represents a pC50 value between 6.7 (included) and 7.5 (IC50 between 200 nM and 32 nM))

C=CC(=O)N1CCN(CCn2c(=O)ccc3cnc(Nc4cnn(CC(F)F)c4)nc32)[C@@H](C)C1 [Example 232]
JAK 1 (pKi) (JAK1): E (E represents a pKi value of 7 or below (Ki of 100 nM or above))
JAK 2 (pKi) (JAK2): E (E represents a pKi value of 7 or below (Ki of 100 nM or above))
JAK 3 (pKi) (JAK3): A (A represents a pKi value≥10 (Ki≤0.1 nM))
JAK3 (pKi)-JAK1 (pKi) (JAK3): A (A represents a value of 3 or above)
Tyk 2 (pKi) (Tyk2): E (E represents a pKi value of 7 or below (Ki of 100 nM or above))
Tall-1 (pIC50) [1]: B (B represents a pC50 value between 6.7 (included) and 7.5 (IC50 between 200 nM and 32 nM))

C=CC(=O)N1CCN(CCn2c(=O)ccc3cnc(Nc4cnn(C(C)(C)COC)c4)nc32)[C@@H](C)C1 [Example 233]
JAK 1 (pKi) (JAK1): E (E represents a pKi value of 7 or below (Ki of 100 nM or above))
JAK 2 (pKi) (JAK2): E (E represents a pKi value of 7 or below (Ki of 100 nM or above))
JAK 3 (pKi) (JAK3): B (B represents pKi value between 9 and 10 (Ki between 1 nM and 0.1 nM))
JAK3 (pKi)-JAK1 (pKi) (JAK3): A (A represents a value of 3 or above)
Tyk 2 (pKi) (Tyk2): E (E represents a pKi value of 7 or below (Ki of 100 nM or above))
Tall-1 (pIC50) [1]: B (B represents a pC50 value between 6.7 (included) and 7.5 (IC50 between 200 nM and 32 nM))

C=CC(=O)N1CC(C(C)Cn2c(=O)ccc3cnc(Nc4ccc(N5CCN(C)CC5)cc4)nc32)C1 (stereo not drawn) [Example 234]
JAK 1 (pKi) (JAK1): E (E represents a pKi value of 7 or below (Ki of 100 nM or above))
JAK 2 (pKi) (JAK2): E (E represents a pKi value of 7 or below (Ki of 100 nM or above))
JAK 3 (pKi) (JAK3): B (B represents pKi value between 9 and 10 (Ki between 1 nM and 0.1 nM))
JAK3 (pKi)-JAK1 (pKi) (JAK3): A (A represents a value of 3 or above)
Tyk 2 (pKi) (Tyk2): E (E represents a pKi value of 7 or below (Ki of 100 nM or above))
Tall-1 (pIC50) [1]: B (B represents a pC50 value between 6.7 (included) and 7.5 (IC50 between 200 nM and 32 nM))

C=CC(=O)N1CCN(CCn2c(=O)ccc3cnc(Nc4cnn(-c5ccccc5)c4)nc32)[C@@H](C)C1 [Example 235]
JAK 1 (pKi) (JAK1): E (E represents a pKi value of 7 or below (Ki of 100 nM or above))
JAK 2 (pKi) (JAK2): E (E represents a pKi value of 7 or below (Ki of 100 nM or above))
JAK 3 (pKi) (JAK3): B (B represents pKi value between 9 and 10 (Ki between 1 nM and 0.1 nM))
JAK3 (pKi)-JAK1 (pKi) (JAK3): A (A represents a value of 3 or above)
Tyk 2 (pKi) (Tyk2): E (E represents a pKi value of 7 or below (Ki of 100 nM or above))
Tall-1 (pIC50) [1]: B (B represents a pC50 value between 6.7 (included) and 7.5 (IC50 between 200 nM and 32 nM))
